Source: patent US20080262010A1, “CRYSTALLINE POLYMORPHS OF N-(3-(DIMETHYLAMINO)PROPYL)-4-(4-(3-FLUORO-4-METHOXYPHENYL) PYRIMIDIN-2-YLAMINO) BENZENESULFONAMIDE AS D-GLUCORONATE SALTS” (Wyeth, priority 2007, published 2008)
Structures can show the parent of a compound that is named as a salt.

Key:
[1] = Water solubility of compound 3 free base and its salts; type: physicochemical; details: for solubility in water: free base, thermogravimetric method
Excerpt: HCl, phosphoric acid, tartaric acid, acetic acid, D-glucoronic acid and succinic acid were used to prepare pharmaceutically acceptable salts of compound 3.
Solid or crystalline forms or polymorphs of compounds having formula I can be achieved in the free base.

[2] = Solubility of the free base of compound 3 in solvents; type: physicochemical
Experimental: Typically, water solubilities of the compounds in the form of their respective free base, such as compound 3, are low to none. In an exemplary embodiment, the solubility of the free base form of compound 3 in THF, DMSO and DMF was high but the solubility in group 3 solvents, or water for example, was low. For example, acetone is needed to dissolve the free base at 50° C. […] HCl, phosphoric acid, tartaric acid, acetic acid, D-glucoronic acid and succinic acid were used to prepare pharmaceutically acceptable salts of compound 3.

SMILES	solubility ([1]; salts of compound 3) [µg/mL]	water solubility ([1]; salts of compound 3) [µg/mL]	solubility in water [1]	solubility in water ([1]; listed as free base 3)	solubility in THF, DMSO and DMF ([2]; THF, DMSO and DMF)	solubility in group 3 solvents, or water ([2]; group 3 solvents, or water)
COc1ccc(-c2ccnc(Nc3ccc(S(=O)(=O)NCCCN(C)C)cc3)n2)cc1F [D-glucoronate salt of compound 3]	5170	5700	–	–	–	–
COc1ccc(-c2ccnc(Nc3ccc(S(=O)(=O)NCCCN(C)C)cc3)n2)cc1F [compound 3, N-(3-(dimethylamino)propyl)-4-(4-(3-fluoro-4-methoxyphenyl)pyrimidin-2-ylamino)benzenesulfonamide]	–	–	little to no water solubility	not detectable	high	low
